As usually defined, the melting point is the temperature, or range, at which the solid turns liquid.

Consider `COc1cc(-n2nc(C#N)cc2-c2ccc(S(C)(=O)=O)cc2)ccc1Cl`, for which the melting point lay in the range of 203 to 205 °C. `OC1CN(CCC#Cc2ccccc2)CCC1c1cccc(C(F)(F)F)c1` (stereo not given) showed a melting point of 77 to 79 °C. In the case of `CCCCCNC12CN3CN(CN(C3)C1)C2` it was 119 to 120 °C; in that of `CCC1(c2cccs2)OCC(=O)Nc2ccc(-c3sc(C#N)cc3C)cc21` (stereo not given), 182 to 184 °C.

In turn, `O=[N+]([O-])c1cc(C=Cc2ccncc2)cc(O)c1O` returned a melting point greater than 350 °C.

Regarding `CCOC(=O)C(=CN(C)C1(CO)CC1)C(=O)c1c(F)c(F)c(F)c(F)c1F`, the melting point fell in the range of 74.5 to 76 °C. The molecule `O=c1[nH]c2ccccc2c(=O)n1-c1ccc(Cl)cc1` yielded a melting point of 288 to 290 °C. In the case of `CC(C)(C)CC(C)(C)Nc1nc(N2CC3CCC(CC3)C2)nc(C(C)(C)C)n1`, the melting point was in the range of 164 to 168 °C. In the case of `COc1ccc(-c2ccc3c(Cl)c(OC)ccc3c2)cc1` it was 158 to 164 °C. The same measure for `Nc1cn(C2CCN(c3c(F)c(N)c4c(=O)c(C(=O)O)cn(C5CC5)c4c3F)C2)nn1` (stereo not given): 210 to 213 °C; for `O=Cc1c(O)c(Cl)cc(Cl)c1F`: 58 to 62 °C; for `NCc1ccc(N2CCN(c3ccc(OCC(=O)O)cc3)C2=O)cc1`: greater than 250 °C. `CC(C)c1cc2ncnn2nc1SCCCCl` showed a melting point of 82 to 83 °C. In the case of `Cc1ccc2c3c(c(=O)[nH]c2c1)C(=O)c1ccccc1-3`, the melting point is greater than 290 °C. The same measure for `O=C(NC(C(=O)O)C(=O)O)OCc1ccccc1`: 144 to 145 °C; for `CCN1CCN(Cc2nc3sc(C)c(C)c3c(=O)n2-c2ccccc2Cl)CC1`: 126 to 129 °C. In the case of `CCCCc1cn(-c2ccccc2C(C)C)c(=O)n1Cc1ccc(-c2ccccc2-c2nnn[nH]2)cc1` it was 167 to 168 °C; in that of `COc1c2nc3ccccc3sc-2c(C)c(=O)c1OC`, 138 °C.

Turning to `CCCCNc1nc(C)c(C(=O)c2ccc(N)c([N+](=O)[O-])c2)s1`, the melting point was in the range of 200 to 205 °C. In the case of `COc1c(C)c(OC(=O)c2c(C)c(C)c(OCCCOc3ccc(C(=O)O)cc3)c(C)c2OC)c(C)c(C)c1C(N)=O` it was 267 to 268 °C; in that of `O=[N+]([O-])c1nccn1CC(O)CN1CCCCC1` (stereo not given), 108 to 109 °C; in that of `N#Cc1ccc(OCc2cnsc2)cc1OC(C(=O)O)c1ccccc1Cl` (racemic), 194 to 197 °C. The same measure for `CNC(=O)Cn1c(-c2ccc(Cl)cc2)nc2ccc(Cl)nc21`: greater than 250 °C; for `COc1ccc(C(=C/C=C/C(=O)O)c2ccc(OC)cc2)cc1`: 187 to 189 °C; for `CCCCCCCCCC(=O)Nc1cc(C(=O)O)c2cc[nH]c2c1`: 248 to 250 °C. In the case of `COc1ccc(-c2c(C(=O)c3ccccc3)c(CSc3nccn3C)nc3cc(OC)c(OC)cc23)cc1OC`, the melting point was in the range of 185 to 186 °C. The same measure for `CCCCc1nc2c(N)nc3ccc(OCc4ccc(OC(F)(F)F)cc4)cc3c2n1C`: 219 to 220 °C; for `Cc1ccc(S(=O)(=O)N2Cc3csc(C)c3C2)cc1`: 158 to 160 °C.

Regarding `Ic1ccc(-c2ccc(I)s2)s1`, the melting point was 164 °C. In the case of `N#Cc1c(N2CCCCC2)cc(-c2cccs2)c2c1Cc1ccccc1-2` it was 148 to 150 °C. In the case of `OCC=Cc1ccsc1` it was 58 to 60 °C; in that of `Cc1nc(Nc2ccccc2)sc1-c1nc2ccccc2c(=O)n1-c1ccccc1Cl`, 228 to 229 °C. `CCc1ccc(C(=O)Cc2ccc(Br)cc2)cc1` gave a melting point of 146 °C. The same measure for `COC(=O)CN1CCC(C(=O)Oc2ccc([N+](=O)[O-])cc2)CC1`: 109 to 111 °C. In the case of `Oc1cc(CN/C=C2\CN=Cc3ccc(Br)cc32)ccc1OC(F)F` it was 256 to 258 °C. `CNC(=O)N1CC(Oc2cccc(C)c2)C1` returned a melting point of 138 to 142 °C. The same measure for `CC(C)n1nc(-c2sc(NC(=O)c3ccc(CCl)cc3)nc2-c2ccccc2)ccc1=O`: greater than 250 °C; for `NN=C(c1ccc(F)cc1)c1ccc(F)cc1`: 78 °C; for `COc1ccc(C)cc1NC(=O)Nc1ccc(N2CCN(C(=O)Nc3ccc(OCCO)cc3C(F)(F)F)CC2)c(C#N)c1`: 135 to 137 °C. In the case of `CC1=C(C)C(O)N(c2nnc(C(C)(C)C)s2)C1=O` (stereo not given) it was 179 to 182 °C. The same measure for `CCN1C(=O)Cc2cccc(OC(=O)CCl)c21`: 105 to 110 °C; for `Fc1ccc(F)c(C(Sc2ccc(Cl)cc2)c2ccc(C3OCCO3)cn2)c1` (stereo not given): 70 to 73 °C. The molecule `COC(=O)[C@H](CCCCNC(=O)c1csc(NC(=O)NCc2ccccc2)n1)NC(=O)OC(C)(C)C` displayed a melting point of 166 °C. Molecule `Cc1c(Br)cc(C(C)(C)C)c(O)c1-c1nc2cc(OC(F)(F)F)ccc2[nH]1` returned a melting point of 235 to 236 °C. The same measure for `N#CCc1ccnc2c(NC(=O)c3c(Cl)cccc3Cl)cccc12`: 234 to 236 °C. The same measure for `Cc1ccc2c(c1)c1c(n2Cc2ccccc2)CCCC1C(=O)O` (stereo not given): 200 to 208 °C; for `OCCCc1ccc(OCc2ccco2)cc1Oc1ncc(C(F)(F)F)cc1Cl`: 68 to 68.6 °C. `NCCc1c[nH]c2ccc(OCCCCc3ccccc3)cc12` gave a melting point of 130 to 132 °C. The same measure for `CC(C)(C)OCC(=O)c1cnc(NC(=O)C(C)(C)C)cn1`: 138 to 140 °C. As to `COc1ccc(C=CC(=O)N2CCc3c([nH]c4ccccc34)C2c2ccc3c(c2)OCO3)cc1O` (stereo not given), the melting point amounted to 213 °C.

On to `COc1cccc(-c2ccc3cc(OC)ccc3c2C(=O)c2ccc(O)cc2)c1`, for which the melting point was in the range of 158 to 159 °C. In the case of `CNC(=O)c1ccn2nc(-c3ccccc3)c(-c3ccc(=O)n(C(C)C)n3)c2c1` it was 225 to 226 °C; in that of `O=C1N[C@@H](CC2CCCCC2)[C@H]1O`, 147 to 148 °C; in that of `Cc1ccc(CCC(C)(C)NCC(O)c2cc3ccccc3o2)cc1` (stereo not given), 121 to 122 °C.

On to `CCOC(=O)C1=C(C)Nc2nc(N3CCOCC3)nc(N3CCOCC3)c2C1c1ccccc1Cl` (stereo not given), for which the melting point worked out at 241 °C. In the case of `CC(=O)N(C(C)=O)c1nc2n(n1)Cc1ccccc1-2` it was 174 to 176 °C; in that of `Cn1ncc(C(N)=O)c1-c1ccc([N+](=O)[O-])o1`, 174 to 176 °C. The same measure for `COC(=O)C(=O)c1cn2c3c(cccc13)C(OC(C)=O)CC2` (stereo not given): 165 to 168 °C; for `COc1ccc2ccccc2c1/C=C/NC=O`: 160 to 162 °C; for `Nc1cc(C(=O)c2ccccc2)ccc1N1CCOCC1`: 138 °C. In the case of `CNc1ncc2cc(-c3c(Cl)cccc3Cl)c(=O)n(C)c2n1` it was 243 to 244 °C; in that of `Nc1ccc(Cl)cc1C(=O)c1ccc(O)cc1`, 170 to 175 °C; in that of `CCCCCCC1C(=O)NC(C(=O)SCCC(=O)OC)(C(O)C2C=CCCC2)C1(C)O` (stereo not given), 64 °C. In turn, `CONS(=O)(=O)c1ccc(Cl)c(C(F)(F)F)c1` showed a melting point of 88 to 90.5 °C. In the case of `CCOc1nc(-c2ccc(F)cc2C)c2c(n1)N(c1c(F)cccc1F)C(=O)NC2` it was 191 to 194 °C; in that of `Cc1ccc(S(=O)(=O)OCC2Cn3c(nc4ccccc43)-c3ccccc3O2)cc1` (stereo not given), 166 °C; in that of `CNCC(O)COc1ccccc1` (stereo not given), 74 to 77 °C.

As to `NC1(C2CCN(c3c(F)cc4c(=O)[nH]c(=O)n(C5CC5)c4c3OC(F)F)C2)CC1` (stereo not given), the melting point is 210 to 214 °C. The molecule `CCCCCCCC[C@H](C)C(=O)Oc1ccc(C(=O)O)cc1` came in with a melting point of 92.5 to 96.5 °C.

In turn, `CCCCOc1ccc2cc(C(=O)O)ccc2c1` came in with a melting point of 175 to 180 °C. In the case of `COc1ccc(CN2CC(c3ccccc3)=C(O)C2=O)cc1` it was 195 to 198 °C.

In turn, `Cc1[nH]c(=O)c(-c2csc(-c3ccnc(NCc4ccccn4)c3)n2)cc1C(=O)NCc1ccccn1` had a melting point greater than 260 °C. In the case of `C#CCOC(=O)c1ccc(Br)s1` it was 65 to 68 °C; in that of `CON(C)C(=O)[C@H]1CCn2c(cc3ccccc32)C1`, 78 to 80 °C. In the case of `CNC(=O)c1cc(CN2C(=O)C3(COc4cc5c(cc43)OCO5)c3ccccc32)oc1C(F)(F)F` (stereo not given) it was 202 to 203 °C; in that of `Oc1ccc(-c2cc3c(Oc4ccc(Cl)cc4)cncc3s2)cc1`, 213 to 215 °C. In the case of `O=C1CN2Cc3cc(C(=O)c4ccccc4)ccc3N=C2N1` it was greater than 300 °C; in that of `CC(C)(CO)NCC(O)Cn1ccnc1[N+](=O)[O-]` (stereo not given), 114 to 116 °C.

In the case of `O=Cc1nccnc1OCc1ccccc1`, the melting point worked out at 69.4 °C. In the case of `N#Cc1ccc2oc(CO)cc2c1` it was 113 to 114 °C. The same measure for `CCOC(=O)c1cnc(SC)nc1Nc1ccc2cn[nH]c2c1`: 212 to 214 °C; for `O=C1N(C(c2ccccc2)c2ccccc2)c2ccccc2C12COc1ccc(F)cc12` (stereo not given): 182 to 184 °C; for `CN1CCC(c2cccc3ccc(C(=O)NCCCc4ccccc4)cc23)CC1`: 47 to 50 °C. The same measure for `COc1ccc2c(c1)N(Cc1ccccc1)C(=O)[C@H]1CCC[C@H]1N2C(=O)CN1C(=O)c2ccccc2C1=O` (relative stereo): 244 to 245 °C; for `O=C(CNC(=O)c1ccc(F)cc1)c1ccsc1`: 140 to 141 °C.

Take `CCc1cccc(C)c1CNc1cc(Cl)nc2c1nc(C)n2C`: the melting point is 157 to 159 °C. The same measure for `CCCCCCCCCCCCCCCCCC(=O)Nc1cccc(N)c1`: 98 to 102 °C; for `N#Cc1cccc(N(C(=O)NC2CCN(Cc3ccccc3)CC2)C2CCCC2)c1`: 165 to 166 °C; for `CC(C)(C)OC(=O)/C=C1\CCc2cccc3c2N1CC3`: 105 to 107 °C. On to `CC(CN1CCN(c2cccc(C(F)(F)F)c2)CC1)C(O)c1ccc2c(c1)oc(=O)n2C` (stereo not given), for which the melting point came to 92 °C.

(Values after a melting point compilation (Tetko et al.; mined from patent text by program, amines drawn as free bases though some values may be those of a salt).)
